Test results taken from patent publication US5648366A, “Substituted pyrrolidin-3-yl-alkyl-piperidines” (Merrell Pharmaceuticals Inc., priority 1995, dated 1997).
Where a name gives a salt, the structure may show the parent alone.

Assays:
[1] = biological target: NK1 receptor (Cavia porcellus, UniProt P30547); assay: Antagonism of SP-induced plasma protein extravasation in guinea pig trachea; format: in vivo; set-up: SP-induced plasma protein extravasation in guinea pig trachea; from tissue; host or cells: living guinea pig; trachea and primary bronchi; conditions: i.v.; Example 3 versus Example 20A
NK1 receptor, sequence (P30547 whole entry): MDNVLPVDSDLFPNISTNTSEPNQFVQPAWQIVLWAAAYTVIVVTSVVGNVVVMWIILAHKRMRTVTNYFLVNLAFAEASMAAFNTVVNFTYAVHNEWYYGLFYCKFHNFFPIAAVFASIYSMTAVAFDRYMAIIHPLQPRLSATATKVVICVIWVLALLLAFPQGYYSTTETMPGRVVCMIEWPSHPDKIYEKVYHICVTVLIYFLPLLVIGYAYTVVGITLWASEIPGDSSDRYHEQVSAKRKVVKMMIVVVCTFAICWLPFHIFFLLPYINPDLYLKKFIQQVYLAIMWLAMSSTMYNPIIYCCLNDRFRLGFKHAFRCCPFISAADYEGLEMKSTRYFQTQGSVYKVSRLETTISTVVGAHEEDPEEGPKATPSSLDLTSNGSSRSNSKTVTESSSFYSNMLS
Protocol: ANTAGONISM OF SP-INDUCED PLASMA PROTEIN EXTRAVASATION IN GUINEA PIG TRACHEA
SP-induced protein leakage through postcapillary venules was assessed by measuring Evans Blue dye accumulation in guinea pig trachea. Animals were anesthetized with pentobarbital then injected with Evans Blue dye (20 mg/kg, i.v., prepared in 0.9% NaCl solution). One minute after dye administration, the antagonist was administered (i.v.) followed by SP (0.3 nmole/kg, i.v.) and, after 5 min, excess dye removed from the circulation by transcardiac perfusion with 50 ml 0.9% NaCl solution. The trachea and primary bronchi were removed, blotted dry and weighed. Dye quantitation was performed spectrophotometrically ([…]) after extracting tissues in formamide for 24 hr at 50° C. Values were subtracted from background (dye only, no agonist). ED50 (dose of compound which inhibits SP-induced plasma protein extravasation by 50%) was calculated from linear regression analysis.

[2] = system: NK1 and NK2 receptors; assay: Antagonism of capsaicin aerosol induced respiratory effects in conscious guinea pigs; format: in vivo, guinea pig; conditions: for SRE NUMBER (coughs/gasps): 19 min capsaicin exposure; for SRE NUMBER (coughs/gasps) / DYSPNEA ONSET / MAXIMUM PRESSURE INCREASE: mean and SEM; for DYSPNEA INCIDENCE / DYSPNEA ONSET / MAXIMUM PRESSURE INCREASE: capsaicin aerosol 0.001%
Protocol: (§1) ANTAGONISM OF NKA AND CAPSAICIN INDUCED R[…] IN CONSCIOUS GUINEA PIGS
(§2) In vivo experiments were performed using male Duncan Hartley guinea pigs (250-350 g). Changes in conscious breathing patterns were monitored in four animals simultaneously using modified whole body plethysmography consisting of four small plexiglass boxes each connected to a reference box via Validyne DP 45-16 differential pressure transducers. The 4 boxes were equipped with an air supply line (also used for aerosol delivery) and an exhaust air line. Supply and exhaust lines were of the same length and narrow bore and arose from a common supply chamber and vented to a common exhaust chamber. This system was used to ensure that fluctuations in supply air and atmospheric pressure would remain in phase and be eliminated from the net signal by the differential pressure transducers. The analog pressure signals were digitalized via a Data Translation DT2821 A to D board. Data were collected at a rate of 100 samples/second/animal. Each cycle of pressure change was analyzed using the following parameters: rising and falling slope determined between minimum and maximum pressures, the ratio of rising over falling slope, and the magnitude of the change between initial trough pressure and peak cycle pressure. Using these values (and observing the animals) the pressure cycles were characterized into normal breaths, forced exhalations (apparent by abdominal heaving), significant respiratory events (SREs; usually coughs, less often sneezes or gasps which were characterized by transient, extremely large pressure increases which were distinguishable from noise) and movement/noise with a PCAT 286 running a System V UNIX operating system. Dyspnea was defined as a significant, sustained increase in plethysmograph pressure which was associated with an observable shift to labored breathing in the animal.
(§3) During the course of a typical experiment in which airway responsiveness to various bronchoconstricting agents was examined, aerosols were delivered for 19 min (0.33 ml/min) using a DeVilbiss Ultraneb 99 ultrasonic nebulizer and animals monitored during this time. Prior to nebulization, 1 min of resting breathing was collected to establish a baseline pressure. […] The vehicle for nebulization of all bronchoconstrictive agents was phosphate buffered saline (pH 7.4) which elicited no r[…] itself. Putative tachykinin antagonists were administered either (i.v.) 20 min prior to onset of aerosol exposure or orally 1 hour prior to onset (to guinea pigs after an overnight fast).
Capsaicin aerosol is known to promote release of the tachykinins SP and NKA from sensory nerves in the airways of guinea pigs which may then act upon NK1 and NK2 receptors, respectively to elicit r[…]. The ability of the compounds of Example 3A; and Example 20A to attenuate capsaicin-induced r[…], shown in Table 7a, is inferred from their ability to reduce incidence of dyspnea, prolong the onset of the response and reduce the number of coughs/gasps which occur during aerosol exposure.

[3] = system: NK2 receptor; assay: Antagonism of NKA aerosol induced respiratory effects in conscious guinea pigs; format: in vivo, guinea pig; conditions: 20 min prior to NKA aerosol (0.05%); for DYSPNEA ONSET: mean and SEM
Protocol: as §1, §2, §3
Table 6 illustrates the effects of the compounds of Example 3; Example 20A; and Example 5A on r[…] induced by NKA aerosol. […] These effects were dose dependent i.e. the higher the dose of compound, the greater attenuation of NKA-mediated effects.

COc1cc(C(=O)N2CCC(CCN3CCC(C(N)=O)(c4ccccc4)CC3)(c3ccc(Cl)c(Cl)c3)C2)cc(OC)c1OC (single isomer, unassigned; (+)) [Example 20A, (+)-1-[2-[3-(3,4-dichloro-phenyl)-1-(3,4,-trimethoxy-benzoyl)-pyrrolidin-3-yl]-ethyl]-4-phenyl-piperidine-4-carboxylic acid amide hydrochloride]
relative potency as NK-1 receptor antagonists (in words) [1]: equipotent
SRE NUMBER (coughs/gasps) ([2]; 1 mg/kg intravenous): 9.9 ± 2.7
DYSPNEA INCIDENCE ([2]; 1 mg/kg intravenous): 77.8%
DYSPNEA ONSET ([2]; 1 mg/kg intravenous): 331 ± 22 s
MAXIMUM PRESSURE INCREASE ([2]; 1 mg/kg intravenous): 1.0 ± 0.1 mmH2 O
SRE NUMBER (coughs/gasps) ([2]; 2.5 mg/kg intravenous): 8.3 ± 1.6
DYSPNEA INCIDENCE ([2]; 2.5 mg/kg intravenous): 100%
DYSPNEA ONSET ([2]; 2.5 mg/kg intravenous): 426 ± 57 s
MAXIMUM PRESSURE INCREASE ([2]; 2.5 mg/kg intravenous): 0.6 ± 0.1 mmH2 O
SRE NUMBER (coughs/gasps) ([2]; 5 mg/kg intravenous): 4.4 ± 1.9
DYSPNEA INCIDENCE ([2]; 5 mg/kg intravenous): 44.4%
DYSPNEA ONSET ([2]; 5 mg/kg intravenous): 597 ± 186 s
MAXIMUM PRESSURE INCREASE ([2]; 5 mg/kg intravenous): 0.8 ± 0.06 mmH2 O
SRE NUMBER (coughs/gasps) ([2]; 10 mg/kg intravenous): 3.3 ± 1.1
DYSPNEA INCIDENCE ([2]; 10 mg/kg intravenous): 55.6%
DYSPNEA ONSET ([2]; 10 mg/kg intravenous): 592 ± 71 s
MAXIMUM PRESSURE INCREASE ([2]; 10 mg/kg intravenous): 0.8 ± 0.1 mmH2 O
inhibition of endogenous tachykinins released by capsaicin aerosol (in words) ([2]; guinea pig, in vivo): inhibit the endogenous tachykinins released by capsaicin aerosol
DYSPNEA INCIDENCE ([3]; 1 mg/kg): 100%
DYSPNEA ONSET ([3]; 1 mg/kg): 451 ± 30 s
DYSPNEA INCIDENCE ([3]; 5 mg/kg): 90%
DYSPNEA ONSET ([3]; 5 mg/kg): 706 ± 82 s
DYSPNEA INCIDENCE ([3]; 10 mg/kg): 70%
DYSPNEA ONSET ([3]; 10 mg/kg): 829 ± 105 s
